Experimental data published in PubChem BioAssay (NCI).
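Step 1: Grow cells in 96-well plates. Step 2: Expose to compound for 48 hours at 5 concentrations. Step 3: Interpolate endpoints linearly; if unreached, use highest concentration. TGI denotes the concentration required for complete inhibition of growth.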

Experiments:
Experiment in all cases: inhibition of tumour cell growth, NCI panel, 48 h
DU-145 prostate = test system: DU-145 prostate
HL-60(TB) leukemia = test system: HL-60(TB) leukemia
HOP-92 NSCLC = test system: HOP-92 NSCLC
MDA-MB-231 breast = test system: MDA-MB-231 breast
MDA-MB-435 = test system: MDA-MB-435
OVCAR-3 ovarian = test system: OVCAR-3 ovarian
RXF 393 renal = test system: RXF 393 renal
SNB-19 CNS = test system: SNB-19 CNS
SW-620 colon = test system: SW-620 colon
UACC-62 melanoma = test system: UACC-62 melanoma

Compound	TGI (DU-145 prostate) [µM]	TGI (HL-60(TB) leukemia) [µM]	TGI (HOP-92 NSCLC) [µM]	TGI (MDA-MB-231 breast) [µM]	TGI (MDA-MB-435) [µM]	TGI (OVCAR-3 ovarian) [µM]	TGI (RXF 393 renal) [µM]	TGI (SNB-19 CNS) [µM]	TGI (SW-620 colon) [µM]	TGI (UACC-62 melanoma) [µM]
COc1nc2c(c(=O)[nH]1)N=C(c1ccc([N+](=O)[O-])cc1)CC(c1ccccc1)N2 (configuration not stated)	> 100	46.6	> 100	> 100	> 100	> 100	> 100	> 100	> 100	> 100
NS(=O)(=O)c1ccc(NCc2cccc3c(=O)c4ccc(Cl)cc4oc23)cc1	> 100	9.47	57	> 100	> 100	> 100	> 100	> 61.8	> 100	> 100
C[N+](C)(C)CC(=O)N/N=C\c1c(O)ccc2ccccc12	> 100	43.3	59.3	> 100	> 100	> 100	82.5	> 100	> 100	> 100
O=C1OCC2=C1C(c1ccc(Cl)cc1)c1cc3c(cc1O2)OCO3 (configuration not stated)	> 100	12.8	> 100	> 100	5.31	> 100	> 100	> 100	> 100	> 100
O=C1C(CN2CCCC2)CCC1CN1CCCC1 (configuration not stated)	> 100	> 100	30.1	26.7	32.9	32.1	37.2	> 100	11	32.9
COc1ccccc1Nc1nc(N)nc(N)c1N	> 100	85	> 100	99.6	82.6	> 100	> 100	> 100	72	> 100
C[C@H]1CC(=O)C[C@@H]2CC[C@@H]3[C@H](CC[C@]4(C)C(OC(=O)c5cccc6c(=O)c7ccccc7[nH]c56)CC[C@@H]34)[C@]21C (some centres not stated)	> 100	36.5	70.8	> 100	> 100	> 100	> 100	> 100	> 100	88.3
CC(=O)C1=C(C)N2C(=NC3=C(CCc4ccccc43)C2c2ccc(Cl)cc2)S1 (configuration not stated)	> 100	10.9	> 100	> 100	> 100	> 100	> 100	> 100	> 100	> 100
CCOP(=O)(OCC)/C(F)=C/c1ccc(F)cc1	> 100	> 100	> 100	> 100	> 100	> 100	> 100	> 100	> 100	> 100
Cc1ccc(Nc2nc3ccccc3nc2NS(=O)(=O)c2ccc(N)cc2)cc1	> 100	80.5	> 100	> 100	> 100	> 100	> 100	> 100	> 100	> 100
CCOC(=O)c1sc(N)nc1N1CCCC1	> 100	> 100	> 100	> 100	> 100	> 100	> 100	> 100	> 100	> 100
COc1cc(Nc2nc(NS(=O)(=O)c3cc(C)c(Cl)cc3S)n[nH]2)cc(OC)c1OC	> 100	> 100	> 100	> 100	> 100	> 100	> 100	> 100	> 100	> 100
COc1cccc(O)c1-c1cc(=O)c2c(O)c(OC)c(OC)c(OC)c2o1	58.9	46.7	82.8	> 100	55.4	66.3	42.9	> 100	> 100	32.8
C=C1C(=O)O[C@H]2[C@@H]3O[C@@](C)(CC/C=C(\C)CCC[C@@H]2C)[C@H](O)C[C@@H]13	27.2	53	> 100	21.6	53.6	9.54	84.3	–	> 100	20.9
CCOC(=O)n1c(=O)nc2c3c(ncn21)Oc1c(c(-c2ccccc2)nn1-c1ccccc1)C3c1ccc(Cl)cc1 (configuration not stated)	3.09	2.78	2.85	2.7	3.03	2.79	2.91	2.95	3.09	3.1
CCc1c(N=[N+]=[N-])c2ccccc2oc1=O	> 100	> 100	> 100	> 100	> 100	> 100	> 100	–	> 100	> 100
COc1cc(OC)cc(Oc2nc3ccc(C(F)(F)F)cc3nc2-c2ccccc2)c1	> 100	> 100	> 100	> 100	> 100	> 100	> 100	–	> 100	> 100
